# Assay results: ChEMBL document CHEMBL1158213, “Bioactive steroidal alkaloids from Solanum umbelliferum” (1996)
# Calls of active or inactive are those of the source. The calls are words filed in the database; no cut-off is given here.
# Experiments:
# Saccharomyces cerevisiae [1] = assay: DNA damaging activity against DNA repair-deficient RS 321 yeast assessed as drug concentration required to produce 12 mm zone of inhibition; type: functional
# Saccharomyces cerevisiae [2] = assay: DNA damaging activity against DNA repair-deficient RS 322YK (rad 52Y) yeast assessed as drug concentration required to produce 12 mm zone of inhibition; type: functional
# Saccharomyces cerevisiae [3] = assay: DNA damaging activity against DNA repair-deficient RS 188N (RAD+) yeast assessed as drug concentration required to produce 12 mm zone of inhibition; type: functional
# Saccharomyces cerevisiae [4] = assay: DNA damaging activity against DNA repair-deficient RS 167N (rad6) yeast assessed as drug concentration required to produce 12 mm zone of inhibition; type: functional
# Saccharomyces cerevisiae [5] = assay: DNA damaging activity against DNA repair-deficient RS 167N (rad6) yeast assessed as drug concentration required to produce 12 mm zone of inhibition up to 8000 ug/mL; type: functional, organism-based
# Saccharomyces cerevisiae [6] = assay: DNA damaging activity against DNA repair-deficient RS 321 yeast assessed as drug concentration required to produce 12 mm zone of inhibition up to 8000 ug/mL; type: functional, organism-based
# Saccharomyces cerevisiae [7] = assay: DNA damaging activity against DNA repair-deficient RS 188N (RAD+) yeast assessed as drug concentration required to produce 12 mm zone of inhibition up to 8000 ug/mL; type: functional, organism-based
# Saccharomyces cerevisiae [8] = assay: DNA damaging activity against DNA repair-deficient RS 322YK (rad 52Y) yeast assessed as drug concentration required to produce 12 mm zone of inhibition up to 8000 ug/mL; type: functional, organism-based
SMILES,IC12 (Saccharomyces cerevisiae [1]) [µg/mL],IC12 (Saccharomyces cerevisiae [2]) [µg/mL],IC12 (Saccharomyces cerevisiae [3]) [µg/mL],IC12 (Saccharomyces cerevisiae [4]) [µg/mL],Activity (Saccharomyces cerevisiae [5]),Activity (Saccharomyces cerevisiae [6]),Activity (Saccharomyces cerevisiae [7]),Activity (Saccharomyces cerevisiae [8])
CC(=O)O[C@H]1CC[C@@]2(C)C(=CC[C@H]3[C@@H]4C[C@@H]5O[C@@]6(CC[C@@H](C)CN6)[C@@H](C)[C@@H]5[C@@]4(C)CC[C@@H]32)C1,3,21,15.7,30,,,,
C[C@@H]1CC[C@]2(NC1)O[C@H]1C[C@H]3[C@@H]4CC=C5C[C@@H](O)CC[C@]5(C)[C@H]4CC[C@]3(C)[C@H]1[C@@H]2C [SOLASODINE],1.9,5,> 6.1,> 10,,,,
CC(=O)N1C[C@H](C)CC[C@@]12O[C@H]1C[C@H]3[C@@H]4CC=C5C[C@@H](O)CC[C@]5(C)[C@H]4CC[C@]3(C)[C@H]1[C@@H]2C,,,,,inactive,inactive,inactive,inactive
CC[C@@]1(O)C(=O)OCc2c1cc1n(c2=O)Cc2cc3ccccc3nc2-1 [CAMPTOTHECIN],,0.9,100,,,,,
CC(=O)O[C@H]1CC[C@@]2(C)C(=CC[C@H]3[C@@H]4C[C@@H]5O[C@@]6(CC[C@@H](C)CN6C(C)=O)[C@@H](C)[C@@H]5[C@@]4(C)CC[C@@H]32)C1,,,,,inactive,inactive,inactive,inactive
C[C@@H]1CC[C@]2(NC1)O[C@H]1C[C@H]3[C@@H]4CC=C5C[C@@H](O[C@@H]6O[C@H](CO)[C@@H](O)[C@H](O)[C@H]6O)CC[C@]5(C)[C@H]4CC[C@]3(C)[C@H]1[C@@H]2C,,,,,inactive,inactive,inactive,inactive
